Results as given in patent US10054581B1, “Inhibitors of notch signaling pathway and use thereof in treatment of cancers” (Ecole Polytechnique Federale de Lausanne (EPFL), priority 2011, dated 2018).
Entries after “also recorded” stand apart in the source; their conditions may differ.

Tests used:
RPMI8402 = assay: Annexin V apoptosis, RPMI8402; assay type: cell-based, human; settings: 10 μM, 7 days
Experimental: FIGS. 6A-6D show 6-(4-Tert-Butylphenoxy)Pyridin-3-Amine (I3) induces G0/G1 cell cycle arrest and apoptosis in human T cell acute lymphoblastic leukemia cell lines and human breast cancer cell line HCC1187. […] Percentage of Annexin V positive (apoptotic) cell population was measured using flow cytometry.
To quantitate the percentage of apoptotic cells, AnnexinV and 7AAD staining was performed. Thymic cells were suspended in 300 μl of 1× AnnexinV binding buffer (BD Biosciences, San Diego, USA) and incubated with 10 μl of AnnexinV-Cy5 antibody and 10 μl of 7AAD (BD Biosciences, San Diego, USA). Samples were incubated for 15 minutes at room temperature. FACS was performed with in one hour of antibody staining.
This 6-(4-Tert-Butylphenoxy)Pyridin-3-Amine (I3) mediated proliferative arrest could be due to induction of apoptosis or cell cycle arrest during different phases of cell cycle. […] Therefore to further elucidate the mechanisms responsible for 6-(4-Tert-Butylphenoxy)Pyridin-3-Amine (I3) mediated proliferative arrest cell cycle and apoptosis analyses were carried out. […] To investigate cell death, Annexin V staining was performed and proportion of apoptotic (AnnexinV positive) cell population was determined by flow cytometry analyses after 7 days of treatment.

[1] = tested on: NICD/MAML1 Notch transcriptional activation complex; assay: MAML1 rescue: HeLa cells co-transfected with NICD and MAML1-FLAG, 12×CSL luciferase; assay type: cell-based; settings: 24 hours
Experimental: HeLa cells were co-transfected 800 ng of NICD+3 μg of pCDNA3.1 or 800 ng of NICD+1 μg of MAML1-FLAG or 800 ng of NICD+3 μg of MAML1-FLAG expression vectors. To measure Notch pathway activation, pGL4.26-12×CSL luciferase plasmid was also introduced into the cells. SV40 renilla was used as an internal control. Cells transfected with different combinations and amounts of plasmid were treated with DMSO or increasing concentration of 6-(4-Tert-Butylphenoxy)Pyridin-3-Amine (I3) (1, 2.5, 5 and 10 μM) for 24 hours. 12×CSL driven luciferase activity was measured using dual luciferase assay system.
NICD-GFP overexpression studies were performed using pEGFP-C1-NICD expression plasmid. The FLAG-CMV2 plasmid expressing MAML1-FLAG was a kind gift from Dr. Lizi Wu, Harvard Medical School, Boston.
To further investigate the mechanism of action of 6-(4-Tert-Butylphenoxy)Pyridin-3-Amine (I3), Applicants speculated that 6-(4-Tert-Butylphenoxy)Pyridin-3-Amine (I3) might be targeting one of the components of the transcriptional activation complex. The over expression of this target protein may titrate out 6-(4-Tert-Butylphenoxy)Pyridin-3-Amine (I3) compound and thus rescue 6-(4-Tert-Butylphenoxy)Pyridin-3-Amine (I3) induced pathway inhibition. […] The Notch pathway activation was measured by introducing 12×CSL luciferase plasmid. […]

CC(C)(C)c1ccc(Oc2ccc(N)cn2)cc1 [I3, 6-(4-Tert-Butylphenoxy)Pyridin-3-Amine]
apoptosis (Annexin V positive cells) (RPMI8402): induces significant apoptosis
Notch signalling, NICD + 1 μg MAML1 ([1]; 800 ng NICD + 1 μg MAML1-FLAG, I3 1-10 μM): can block Notch signalling in a concentration dependent manner
Notch signalling, NICD alone (no MAML1) ([1]; 800 ng NICD, I3 1, 2.5, 5 and 10 μM): can block Notch signalling in a concentration dependent manner; also recorded: could block Notch signalling activations
